# Patent US20200138921A1, “METHODS OF PREVENTING AND TREATING DISEASES CHARACTERIZED BY SYNAPTIC DYSFUNCTION AND NEURODEGENERATION INCLUDING ALZHEIMER'S DISEASE” (The Trustees of Columbia University in the City of New York, priority 2017, published 2020)
# Key:
# Type in all cases: cell-based, rat
# [1] = test system: Ube3A; assay: Ube3A protein degradation in B35 cells (cycloheximide chase); settings: pre-treatment with STI
# Method: FIG. 5A is a graph showing the quantification of Western blots of the levels of Ube3A and GAPDH (as house-keeping protein) of B35 cells treated with cycloheximide (CHX) or CHX and oAβ for 4, 8 and 16 hours. […] Graphs represent mean values and standard deviation. Significance determined by one-way ANOVA followed by Tukey Post Hoc multiple comparisons.
# [2] = test system: Ube3A; assay: Immunoprecipitation of HA-Ube3A and phospho-tyrosine immunoblot in B35 cells; settings: B35 cells pre-treated with STI-571 for 1 hour prior to oAβ
# Method: (§1) Hippocampal neuron cultures from both male and female rat embryos (E17-18) were prepared following a slightly modified version of the method of Brewer et al. 1996. Hippocampal neurons were kept in culture at 37° C. with 5% CO2 in Neurobasal medium (ThermoFisher) with B27 (ThermoFisher) supplement and Glutamax (ThermoFisher) and plated at a density of 2.5×10^5 cell/ml on dishes coated with poly-D-lysine (ThermoFisher). For the experiments, neurons were used after 14-21 days in vitro (DIV). Rat neuroblastoma B35 cells were cultured and maintained in DMEM (ThermoFisher) supplemented with 10% fetal bovine serum (FBS; Invitrogen) and Glutamax (ThermoFisher).
# Cells were collected and homogenized with IP lysis buffer (ThermoFisher) supplemented with Halt protease and phosphatase inhibitor (ThermoFisher). Cell extracts were incubated overnight at 4° C. with 1.0 μg HA antibody (Cell Signaling) or mouse IgG (Cell Signaling) as a negative control Immunocomplexes were incubated with magnetic beads covalently coated with protein G (Invitrogen) on a rotator for 2 hours, at 4° C. The beads were then pelleted with a magnet and washed 3 times with 1× cell lysis buffer (Cell Signaling) supplemented with complete mini protease inhibitor mixture (Roche). The immunocomplexes were resuspended in cell lysis buffer, LDS-sample buffer (Invitrogen), […] dithiothreitol (DTT), and analyzed by Western blotting. […]
# [3] = test system: RhoA-GTP; assay: Rho-GTPase activity pull-down assay in hippocampal neurons; settings: siRNA 24 hours prior to oAβ for 8 hours
# Method: Rho-GTPase pull-down assays were performed following the manufacturer's protocol (Cytoskeleton, Inc.). Briefly, cells were washed once with ice-cold PBS and lysed with RIPA/M-PER buffer (1:1; ThermoFisher). Lysates were incubated on ice for 5 minutes, and centrifuged (12,000 g) for 5 minutes. 30 μl was used for input and the remaining lysates were incubated with Rhotekin-RBD (RhoA) or PAK-RBD (Rac1) protein beads (25 μl) by rotating for 1 hour at 4° C. Beads were washed with ice-cold PBS (500 μl, 3×) and collected, and bound proteins were eluted with 1× sample buffer (30 μl). Input and eluted samples were then analyzed by gel electrophoresis and Western blotting using either a RhoA or Rac1-specific antibody.
# To test whether increasing Ube3A could rescue the effects of oAβ, cultured primary hippocampal neurons (14 DIV) were pretreated with 300 nM of TOP or control PBS. At day 3 the cells were treated with oligomeric Aβ for 6 hours and whole cell lysates prepared for Western blot analysis of Ube3A protein levels and levels of active GTPase levels including RhoA-GTP, Rac1-GTP and Cdc42-GTP.
# [4] = test system: Ephexin-5; assay: Western blot of Ephexin-5 in cultured primary hippocampal neurons; settings: hippocampal neurons, Penetratin-1-linked siRNA for 24 hours
# Method: as §1
# Whole frozen mouse hippocampi, human brain specimens, and cultured cells were homogenized in RIPA buffer (ThermoFisher) supplemented with protease and phosphatase inhibitor cocktail (ThermoFisher), using a Teflon dounce homogenizer and centrifuged at 14,000 rpm for 10 minutes at 4° C. Supernatants were collected, normalized by BCA assay (ThermoFisher), and prepared for loading using sample buffer (SB) 4× (ThermoFisher) and dithiothreitol (DTT) 10× (ThermoFisher).
# Cultured primary hippocampal neurons (14 DIV) were treated with 300 nM of a topoisomerase type I inhibitor, topotecan (TOP) or a vehicle control as described in Huang et al. 2012. Some cells were treated for 24 hours and some for 72 hours. All cells were harvested and whole cell lysates prepared for Western blot analysis of Ube3A and Ephixin-5.
# [5] = test system: primary hippocampal neurons; assay: Dendritic spine density in cultured hippocampal neurons (DiOlistic labeling); settings: siRNA pre-treatment, oAβ 24 hours
# Method: The protocol for diolistic labeling of neurons was adapted from Gan et al. 2000 and Gan et al. 2009. Briefly, 100 mg of tungsten particles (1.1 μm diameter; Bio-Rad) were thoroughly precipitated with 5.0 mg of lipophilic dye (DiI; ThermoFisher) and dissolved in 100 μl of methylene chloride. Dye-coated particles were shot 2-3 times into the cells using the Helios gene gun system (Bio-Rad) and left in 0.1 M PBS overnight to allow dye diffusion along neuronal processes. Cells were post-fixed with 4% paraformaldehyde (Pierce) for 1 hour to preserve staining, then mounted onto glass slides using Gel Mount (Biomeda) and stored at 4° C. in the dark.
# Labeled neurons were imaged using the Laser Scanning Microscope (LSM) 510 Meta confocal microscope (Zeiss), equipped with 40×1.3 NA and 100×1.4 NA oil-immersion objectives. The NIH Image software program ImageJ was used the quantify diolistic-labeled cultured neurons. An average of 12 compressed images (20 μm thick) consisting of pyramidal neurons were quantified for each treatment. Spines were counted with NeuronStudio software in a blinded manner and spine density was represented in number of spine per μm dendritic length. Statistical analysis was performed using the statistics package GraphPad Prism.
# To further test whether increasing Ube3A could rescue the effects of oAβ, cultured primary hippocampal neurons (14 DIV) were pretreated with 300 nM of TOP or control PBS. The neurons were then treated with oAβ for 24 hours, and whole cell lysates prepared for Western blot analysis, or fixed for microscopy.
Compound,oAβ-induced decrease in Ube3A protein [1],Ube3A phosphorylation by oAβ [2],oAβ-induced upregulation of RhoA activity [3],levels of Ephexin-5 [4],loss of dendritic spine in neurons treated with oAβ [5]
Cc1ccc(NC(=O)c2ccc(CN3CCN(C)CC3)cc2)cc1Nc1nccc(-c2cccnc2)n1 [STI-571],completely blocked,complete abolishment,,,
"Penetratin-1-linked siRNA: Ephexin-5 siRNA (SEQ ID NO: 1 and 2) cross-linked via a Cys-Cys bond to the delivery peptide Penetratin-1 (chain 1 GUCCUUUCUCCGUGUAUGUUU; chain 2 ACAUACACGGAGAAAGGACUU; Penetratin-1 peptide attached via Cys-Cys disulfide, further chemistry not given here)",,,completely blocked,depleted,completely rescued
